The target of this experiment is Disintegrin and metalloproteinase domain-containing protein 17 (Homo sapiens, UniProt P78536). Description: Inhibition of recombinant TACE catalytic domain (unknown origin) using Abz-LAQAVRSSSR-Dpa as substrate preincubated for 10 mins followed by substrate addition measured after 10 mins by FRET assay.

Experimental findings from BindingDB's records for doi:10.1016/j.bmcl.2017.02.035 (Nestl&#65533, 2017) are described below.

pIC50: −log10 of the molar value.

Disintegrin and metalloproteinase domain-containing protein 17, sequence (P78536 whole entry, the tested form may be a part): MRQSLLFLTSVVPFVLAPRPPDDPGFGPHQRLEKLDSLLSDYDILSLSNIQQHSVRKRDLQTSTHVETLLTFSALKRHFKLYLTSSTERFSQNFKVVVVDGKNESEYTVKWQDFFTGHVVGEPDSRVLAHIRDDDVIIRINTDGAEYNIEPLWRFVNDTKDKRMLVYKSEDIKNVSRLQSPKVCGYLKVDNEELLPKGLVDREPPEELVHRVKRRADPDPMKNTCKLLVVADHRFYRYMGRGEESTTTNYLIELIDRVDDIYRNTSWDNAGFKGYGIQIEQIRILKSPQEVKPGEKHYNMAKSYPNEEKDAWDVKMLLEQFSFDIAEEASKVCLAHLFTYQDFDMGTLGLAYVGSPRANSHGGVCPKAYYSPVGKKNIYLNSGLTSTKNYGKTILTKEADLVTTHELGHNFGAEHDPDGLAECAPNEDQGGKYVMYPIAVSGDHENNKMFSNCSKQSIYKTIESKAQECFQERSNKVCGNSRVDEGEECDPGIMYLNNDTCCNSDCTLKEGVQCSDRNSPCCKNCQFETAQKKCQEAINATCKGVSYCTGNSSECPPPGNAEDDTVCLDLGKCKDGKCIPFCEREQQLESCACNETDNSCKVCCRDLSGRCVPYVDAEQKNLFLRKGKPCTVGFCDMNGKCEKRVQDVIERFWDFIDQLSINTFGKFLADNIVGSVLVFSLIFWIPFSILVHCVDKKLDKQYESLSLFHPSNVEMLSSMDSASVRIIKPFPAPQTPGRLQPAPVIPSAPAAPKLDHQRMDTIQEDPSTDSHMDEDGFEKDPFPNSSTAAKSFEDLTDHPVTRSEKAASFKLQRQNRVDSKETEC

In general, pIC50 refers to the IC50 on a negative log10 scale, so that one unit is a factor of ten. Take `C#CCN1C[C@H](C(=O)NO)[C@H](NS(=O)(=O)c2ccc(OCc3cc(C)nc4ccccc34)cc2)C1`: the pIC50 is 9.15.
